Measured values published in US10548935B2, “Composition and method for preventing, reducing, alleviating or treating idiopathic vomiting” (Mars, Incorporated, priority 2013, dated 2020).
Counter-ions that a name gives are not always drawn.

Columns and labels:
h5HT3A receptor = molecular target: T1, h5HT3A receptor (Homo sapiens, UniProt P46098); experiment: Assays for screening 5-HT3a receptor inhibitors (FLIPR calcium assay or aequorin-assisted serotonin receptor assay; dosage response curves); assay type: cell-based
T1 construct: expressed in transfected cells
T1 sequence (P46098 24-478): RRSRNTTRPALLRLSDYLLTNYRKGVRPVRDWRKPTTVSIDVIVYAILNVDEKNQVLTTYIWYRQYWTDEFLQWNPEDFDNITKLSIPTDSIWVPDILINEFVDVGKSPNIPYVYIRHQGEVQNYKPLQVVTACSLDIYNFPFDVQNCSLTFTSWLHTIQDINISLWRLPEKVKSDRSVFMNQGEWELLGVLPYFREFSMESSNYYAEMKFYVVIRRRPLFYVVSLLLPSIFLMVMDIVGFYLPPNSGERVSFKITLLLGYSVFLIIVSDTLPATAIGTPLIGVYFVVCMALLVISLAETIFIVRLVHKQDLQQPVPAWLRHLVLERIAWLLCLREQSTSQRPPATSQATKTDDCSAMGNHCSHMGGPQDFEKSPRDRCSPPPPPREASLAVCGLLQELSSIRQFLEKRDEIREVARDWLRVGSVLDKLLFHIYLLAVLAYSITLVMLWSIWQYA
Text: Various known high through-put screening assays can be used to determine the inhibitory effects of a material on the 5-HT3a receptors.
Due to activation of 5HT3 receptor following calcium and sodium influx and the subsequent rapid intracellular calcium and sodium increase, a calcium indicator (e.g., Fluo-4 AM) or a sodium dye can therefore be readily used to detect influx Ca^+2 or Na^+ signal using the Flourometric Imaging Plate Reader (FLIPR) assay to identify agonists or antagonists of 5-HT3a receptors.
The 5-HT3a FLIPR assay can specifically be conducted by the following steps. First, […] (human embryonic kidney) cells stably expressed with h5HT3A receptor are grown in 16-18 ml growth medium in a 75 cm^2 flask for 2-3 days at 37° C. in a mammalian cell culture incubator with 5% CO2 and 90% humidity. The growth medium may contain, for example, DMEM/F12 (1:1, Invitrogen 11039) supplemented with 10% FBS (fetal bovine serum), 100 μg/ml Antibiotic/Antimycotic, and 150 ug/ml G418. The cell medium is then transferred to a 50 ml tube, and the cells are washed with 10 ml PBS. Subsequently, 2 ml of 0.05% Trypsin-EDTA is added to detach cells, and the above cell medium is added back to flask to inactivate trypsin. Next, the cells are transferred back to the above 50 ml tube, which is centrifuged at 850 rpm for 3 minutes to remove medium. The cells obtained from centrifugation are then re-suspended with growth medium at 1-1.5 ml per flask cells. One vial of Fluo-4 AM (calcium indicator, 50 ug) is subsequently dissolved with 20 ul of Pluronic F-127, and 10 ul of Fluo-4 AM solution per flask cells is added (1 vial of Fluo-4 AM solution, 20 ul, is good for 2 flask of cells). The cells are then stained with Fluo-4 AM for 30 min at room temperature with gently shaking on a shaker, followed by addition of 45 ml of the assay buffer [HBSS with CaCl2 and MgCl2 (Invitrogen 14025), 20 mM HEPES, pH7.2] to wash cells once. Centrifugation is carried out once more at 850 rpm for 3 minutes to remove assay buffer. The resulting cell pellet is again re-suspended in Assay buffer (per flask cells with 18-20 ml assay buffer). Ninety microliters of cells (50K cells/well) is loaded in the 96-well plates that are pre-loaded with the compounds to be tested (10 ul of 1 mM test materials, the final concentration of the test materials will be 100 uM). The plates are placed at room temperature for 15-30 min in dark and then transferred to FLIPR-384 instrument (Molecular Devices). […] The calcium signal of the test plates is finally recorded by the FLIPR program. The average and standard deviations are calculated using Excel, and the background (buffer) is subtracted. The percentage (%) inhibition is then calculated as
[formula] A test material will be considered as having an inhibitory effect against the 5-HT3a receptor if the percentage inhibition calculated is greater than 40%.
Aequorin is a photo-protein originating from the Jellyfish Aequorea Victoria. It is initially translated as an apo-enzyme requiring the hydrophobic group coelenterazine to initiate the conversion to aequorin. Upon binding of calcium, the coelenterazine is oxidized by aequorin into coelenteramide (BFP) resulting in the emission of blue light and CO2. Therefore, it is particularly useful for visualizing or detecting influx Ca^+2 signal.
After 18-24 h of culture, the cells are detached gently by flushing with their cell culture medium. Washing with an additional 10 mLs of cell culture media will ensure that optimum number of cells is captured. The cells are then centrifuged at 150×g, counted and re-suspended at 1×10^6 cells/mL in BSA medium [DMEM/Ham's F12 (with 15 mM HEPES, L-glutamine, without phenol red) culture medium (Invitrogen, Cat. No. 11039-021)+10% protease-free BSA (Sigma Aldrich, Cat. No. A9205) in H2O with a final BSA concentration of 0.1%] in a Falcon tube. Coelenterazine is added at a final concentration of 5 μM in assay medium.

NK-1 receptor = molecular target: T2, NK-1 receptor (Homo sapiens, UniProt P25103); experiment: Tango GPCR cell-based assay, TACR1-bla U2OS cells, NK-1 receptor inhibitors; conditions: 1 nM SAR9 Substance P agonist
T2 construct: host or cells: U2OS (Tango TACR1-bla)
Description: Various known high through-put screening assays can also be used to determine the inhibitory effects of a material on the NK-1 receptors.
One exemplary assay is the Tango™ G-Protein Coupled Receptors (GPCR) cell-based assays by Invitrogen. First, TACR1-bla U2OS cells (from Invitrogen) are cultured in McCoy's medium. The cultured cells are then plated in DMEM into 96-well plates (15,125 cells/well in 90 uL/well). After 16-24 hours, the cells are treated with test materials or positive control antagonist (which is 100 nM Aprepitant) and then incubated for 30-60 minutes at 37° C. in 5% CO2. Subsequently, the cells are treated with 1 nM SAR9 Substance P agonist and incubated again for 5 hours at 37° C. in 5% CO2. The plates are removed from the incubator and equilibrated at room temperature for 15 minutes. During the equilibration step, the LiveBlazer substrate detection solution (from Invitrogen) is prepared. Six times of substrate mixture is added to each well, followed by incubating the plates in the dark at room temp for 2 hours. The plates are read by the Envision microplate reader in 2 channels using the “Geneblazer 451” protocol, which include a blue channel (Excitement at 405 and Emission at 460) and a green channel (Excitement at 405 and Emission at 535).
FIGS. 45-70 show the NK-1 dosage response curves of compounds described hereinabove with high NK-1 inhibitory effect.

T2 sequence (P25103 whole entry): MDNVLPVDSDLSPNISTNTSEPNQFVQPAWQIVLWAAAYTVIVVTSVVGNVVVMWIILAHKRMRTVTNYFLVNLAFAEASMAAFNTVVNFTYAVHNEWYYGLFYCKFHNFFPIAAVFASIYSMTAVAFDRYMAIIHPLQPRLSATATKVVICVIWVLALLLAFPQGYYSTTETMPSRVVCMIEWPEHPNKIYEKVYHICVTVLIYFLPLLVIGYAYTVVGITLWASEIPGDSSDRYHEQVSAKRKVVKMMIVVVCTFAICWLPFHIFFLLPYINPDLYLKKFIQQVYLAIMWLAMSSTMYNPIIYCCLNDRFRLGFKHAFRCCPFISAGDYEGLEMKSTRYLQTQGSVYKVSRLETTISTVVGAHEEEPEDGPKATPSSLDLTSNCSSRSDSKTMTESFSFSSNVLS

Compound | 5-HT3a receptor inhibitory effect (h5HT3A receptor) | NK-1 receptor inhibitory effect (NK-1 receptor) | cell toxicity (Cell toxicity)
Cc1c(O)ccc(O)c1C [2,3-dimethyl-1,4-benzenediol] | surprisingly high |  | little or no
C[C@@H]1CC[C@H]2C(C)(C)[C@H]3C[C@@]12CC[C@@]3(C)O [(+)-cedrol] | surprisingly high |  | little or no
CC(=O)C=Cc1ccccc1 [Benzylidenacetone] |  | surprisingly high | 
CC(C)=CCC[C@](C)(O)C1CC=C(C)CC1 (stereo partly shown) [Bisabolol] | surprisingly high |  | little or no
O=C(/C=C/c1ccccc1)c1ccccc1 [Chalcone] |  | surprisingly high | little or no
C=C1CC[C@H](O)C/C1=C/C=C1\CCC[C@]2(C)[C@@H]([C@H](C)CCCC(C)C)CC[C@@H]12 [Cholecalciferol VD3, Cholecalciferol] | surprisingly high |  | 
CCCCCCCC1CCCC(=O)O1 (stereo not shown) [Delta-dodecalactone] | surprisingly high |  | little or no
CC/C=C\C/C=C\C/C=C\C/C=C\C/C=C\CCCC(=O)O [Eicosapentaenoic acid] |  |  | little or no
CCOc1ccc2c(c1)C(C)=CC(C)(C)N2 [Ethoxyquin] | surprisingly high |  | little or no
CC(C)=CCCC(C)=CCCC(C)=CC=O [Farnesal] | surprisingly high |  | little or no
CC1=C(CCC(=O)O)c2cc3[nH]c(cc4nc(cc5[nH]c(cc1n2)c(C)c5C(C)O)C(C)=C4C(C)O)c(C)c3CCC(=O)O (stereo not shown) [Hematoporphyrin dihydrochloride] |  |  | little or no
CC(C)[C@@H]1CC[C@@H](C)C[C@H]1OCC(O)CO (stereo partly shown) [Menthoxypropanediol] | surprisingly high |  | 
CCCOC(=O)c1ccc(O)cc1 [N-propyl-4-hydroxybenzoate] | surprisingly high |  | 
CCCCCCCCC(=O)NCc1ccc(O)c(OC)c1 [Nonivamide] | surprisingly high |  | little or no
CCCCCC/C=C\CCCCCCCC(=O)O [Palmitoleic acid] | surprisingly high |  | little or no
O=C(CCc1ccc(O)cc1)c1c(O)cc(O)cc1O [Phloretin] | surprisingly high |  | little or no
O=C(/C=C/C=C/c1ccc2c(c1)OCO2)N1CCCCC1 [Piperine] |  |  | little or no
CCCCOC(=O)CC(O)(CC(=O)OCCCC)C(=O)OCCCC [Tributyl citrate] | surprisingly high |  | little or no

The next lines start with results.

5-HT3a receptor inhibitory effect (h5HT3A receptor) | NK-1 receptor inhibitory effect (NK-1 receptor) | Compound | cell toxicity (Cell toxicity)
surprisingly high |  | OCCCCCCCCCCCCCCO [1,14-Tetradecanediol] | little or no
 | surprisingly high | O=C(/C=C/c1ccccc1O)c1ccc(O)cc1O [2,2′,4′-trihydroxy-chalcone] | little or no
 | surprisingly high | c1ccc2c(Cc3c[nH]c4ccccc34)c[nH]c2c1 [3,3′-diindolylmethane] | little or no
surprisingly high |  | CCCCCCCC1CC(C)OC1=O (stereo not shown) [3-heptyldihydro-5-methyl-2(3H)-furanone] | little or no
surprisingly high |  | CCCCCC(=Cc1ccccc1)CO [Alpha-amylcinnamyl alcohol] | little or no
surprisingly high |  | CC(=O)/C=C/C1C(C)=CCCC1(C)C (stereo not drawn) [Alpha-lonone] | little or no
 | surprisingly high | O=c1cc(-c2ccc(O)cc2)oc2cc(O)cc(O)c12 [Apigenin] | little or no
surprisingly high |  | COc1ccc(-c2coc3cc(O)cc(O)c3c2=O)cc1 [Biochanin A] | little or no
surprisingly high |  | c1ccc(CCCc2ccccn2)cc1 [Cortex pyridine, 2-(3-phenylpropyl)pyridine] | little or no
surprisingly high |  | CCCCCCCCCC1CCCC(=O)O1 (stereo not shown) [Delta-tetradecalactone] | little or no
surprisingly high |  | O=c1cc(-c2ccccc2)oc2ccccc12 [Flavone] | little or no
surprisingly high |  | CCCCCCCCC1CCC(=O)O1 (stereo not shown) [Gamma-dodecalactone] | little or no
surprisingly high |  | CCCCCC1C(=O)CCC1CC(=O)OC (stereo not shown) [Methyl dihydrojasmonate] | little or no
surprisingly high |  | C=C(C)[C@@H]1CCC2=CC(=O)C[C@@H](C)[C@]2(C)C1 [Nootkatone] | little or no
surprisingly high |  | CCCCCCCCCCC/C=C\CCCCC(=O)O [Petroselinic acid] | little or no
surprisingly high |  | Cc1cc2nc3c(=O)[nH]c(=O)nc-3n(C[C@H](O)[C@H](O)[C@H](O)CO)c2cc1C [Riboflavin VB2, Riboflavin] | 
surprisingly high |  | CCCCOCc1ccc(O)c(OC)c1 [Vanillyl butyl ether] | little or no
surprisingly high |  | Vetiverol | little or no
